# Experimental data published in US9340559B2, “Proteasome inhibitor delanzomib for use in the treatment of lupus” (Cephalon, Inc., priority 2011, dated 2016).
# Legend:
# Assay type in all cases: in vivo, mouse
# [1] = system: NZM mice; test: Body weight progression, NZM mice (Example 2)
# [2] = system: MRL/lpr mice; test: Antinuclear antibody (ANA) ELISA (anti-chromatin, anti-Smith Ag, anti-dsDNA IgG), serum of MRL/lpr mice
# Excerpt: For all ANA ELISA assays, values below the limit of detection set by the lowest point along the standard or set by the manufacturer are considered out of range and are not estimated, but assumed the lowest point along the standard curve for that particular assay.
# [3] = system: MRL/lpr mice; test: Luminex analysis of serum cytokines (IL-12p40/p70, IL-1β, TNFα), MRL/lpr mice
# Protocol: For the processing of serum samples for cytokine analysis, frozen plasma at −80° C. is thawed on ice, vortexed, and centrifuged for 10 minutes to remove debris and aggregates. A total of 25-50 μL of serum is used for Luminex® assays following the manufacturer's instructions. Ten different mouse cytokines are measured using the mouse cytokine 10-plex bead kit (Invitrogen, Carlsbad, Calif., no. LMC0001). Briefly, filter plates (Millipore, Billerica, Mass., no. MAIPSWU10), are pre-wet with 200 μL of wash solution (kit component) and 25 μL of beads are added per well. Serum samples are diluted and a total volume of 50 μL is added per well (ie, 25 μL of sample serum plus 25 μL of assay diluent as provided by the manufacturer). Plates with beads are incubated for 2 hours at room temperature (RT) on an orbital shaker in the dark. At the end of the incubation, plate(s) are washed twice in kit buffer, secondary biotinylated antibody is added at a 1:10 dilution (100 μL) in biotin diluent provided with the kit. Plates are incubated at RT for 1 hour in the dark then washed twice in kit buffer. Strepavidin in assay diluent is added at 100 μL per well, then incubated for 30 minutes at RT in the dark. The plates are washed 3 times then 100 μL of kit wash solution is added and agitated for 2-3 minutes at RT in the dark. Plates are run immediately following this incubation period on a Luminex xMAP 200 unit with data acquisition and analysis software (Invitrogen, San Diego, Calif., no. MAP0200). All bead washing is performed using a vacuum manifold unit (Pall, Ann Arbor, Mich. no. 5017). For all cytokine Luminex assays, values below the limit of detection set by the lowest point along the standard or set by the manufacturer are considered out of range and are not estimated, but assumed the lowest point along the standard curve for that particular assay.
# (§1) Mice are tracked on an individual basis.
# (§2) Vehicle alone is provided orally twice weekly (p.o.). Both proteasome inhibitors are suspended in the vehicle solution. […] In addition, urine proteinuria is determined for all animals.
# (§3) Vehicle was 3% DMSO/10% Solutol/87% PBS.
# [4] = system: NZM mice; test: Splenomegaly (spleen mass), NZM mice (Example 2)
# [5] = system: MRL/lpr mice; test: Urinalysis: urine leukocytes (leukouria), Uristix, MRL/lpr mice
# Protocol: Urine samples are acid precipitated for total protein recovery and analysis. Samples for which enough urine remained are used for Uristix® leukouria analysis. Briefly, a standard protein solution is prepared from normal mouse sera and is used as a standard for mouse urinary protein assay by turbidity. Standard preparation is as follows: 0, 5, 10, 15, 20, 30, 40, and 50 μL of a 4 mg/mL mouse sera standard protein solution as provided in the kit are added in duplicate into two columns. PBS is added to individual wells to adjust the final volume to 50 μL. For urine sample preparation, urine samples are centrifuged at 9880×g for 3 minutes using a tabletop micro-centrifuge. Urine supernatant (1-50 μL) is added in duplicate. PBS is added to adjust the volume to 50 μL total. For the turbidity assay: 25 μL of 0.1 N HCl is added into blank columns and 250 μL of 3% sulfosalicyclic acid into the test columns. The microplate is incubated for 10 minutes at RT and plates are read using an ELISA reader with single beam at 450 nm. For the Uristix® strip assay, strips are laid out and labeled. Twenty microliters of urine are placed onto each test strip square and incubated for at least 30 seconds before the result is recorded. For all total urine analysis plate-based assays, values below the limit of detection set by the lowest point along the standard or set by the manufacturer are considered out of range and are not estimated, but assumed the lowest point along the standard curve for that particular assay.
# [6] = system: NZM mice; test: Collagen type-I cross-linker (CTx) bone resorption biomarker ELISA, serum of NZM mice
# Protocol: Assay is performed as instructed by the manufacturer. Briefly, biotinylated ratlaps antigen is first added in each well of a 96-well ELISA plate. This plate is covered and incubated for 30 minutes at RT. Plate is washed five times with washing solution and incubated with standards or unknown samples in appropriate wells followed by primary Ab. Incubate overnight for 18 hours at 4° C. followed by washing with buffer. Secondary incubation includes a peroxidase conjugated goat anti-rabbit IgG added to each well and incubation at RT for 1 hour. Incubation with chromogenic substrate solution for 15 minutes at RT in the dark develops the plate for analysis. Stopping solution halts the reaction, absorbance is measured within 2 hours at 450 nm.
# [7] = system: MRL/lpr mice; test: Lymphomegaly (enlarged lymph nodes), MRL/lpr mice; settings: for lymphomegaly decrease compared to vehicle: iv
# Protocol: FIG. 4 depicts lymphomegaly for MRL/lpr mice across treatment groups for the study duration. MRL/lpr mice were treated as outlined in the legend. Lymphomegaly or presence of enlarged lymph nodes were observed weekly and noted.
# as §1, §2, §3
# [8] = system: NZM mice; test: Survival, NZM lupus nephritis model, ip dosing (Example 2)
structure (smiles),measurement,setting,value
"CC(C)C[C@H](NC(=O)[C@@H](NC(=O)c1cccc(-c2ccccc2)n1)[C@@H](C)O)B(O)O [COMPOUND A, [(1R)-1-[[(2S,3R)-3-hydroxy-2-[6-phenyl-pyridine-2-carbonyl)amino]-1-oxobutyl]amino]-3-methylbutylboronic acid]","Body mass AUC, percent change vs vehicle","[1]; G1 3 mg/kg ip, 1× wk",+9%
same,body weight increase compared to vehicle,[1]; G1: 3 mg/kg ip once per week,9%
same,"Body mass AUC, percent change vs vehicle","[1]; G2 3 mg/kg ip, 2× wk",+10%
same,body weight increase compared to vehicle,[1]; G2: 3 mg/kg ip twice weekly,10%
same,"ANA AUC Smith Ag, percent change vs vehicle","[2]; G1: 3 mg/kg iv, 1× wk",−96%
same,"ANA AUC chromatin, percent change vs vehicle","[2]; G1: 3 mg/kg iv, 1× wk",−94%
same,"ANA AUC dsDNA, percent change vs vehicle","[2]; G1: 3 mg/kg iv, 1× wk",−91%
same,"ANA AUC Smith Ag, percent change vs vehicle","[2]; G2: 3 mg/kg iv, 2× wk",−96%
same,"ANA AUC chromatin, percent change vs vehicle","[2]; G2: 3 mg/kg iv, 2× wk",−94%
same,"ANA AUC dsDNA, percent change vs vehicle","[2]; G2: 3 mg/kg iv, 2× wk",−95%
same,"ANA AUC Smith Ag, percent change vs vehicle","[2]; G3: 10 mg/kg po, 2× wk",−94%
same,"ANA AUC chromatin, percent change vs vehicle","[2]; G3: 10 mg/kg po, 2× wk",−91%
same,"ANA AUC dsDNA, percent change vs vehicle","[2]; G3: 10 mg/kg po, 2× wk",−37%
same,anti-Smith Ag IgG ANA level decrease vs vehicle at EOS,[2]; Group 1,97%
same,anti-chromatin IgG level reduction vs vehicle,[2]; Group 1,89%
same,anti-dsDNA IgG ANA decrease vs vehicle,[2]; Group 1 (iv),80%
same,anti-Smith Ag IgG ANA level decrease vs vehicle at EOS,[2]; Group 2,100%
same,anti-chromatin IgG level reduction vs vehicle,[2]; Group 2,98%
same,anti-dsDNA IgG ANA decrease vs vehicle,[2]; Group 2 (iv),84%
same,anti-Smith Ag IgG ANA level decrease vs vehicle at EOS,[2]; Group 3,86%
same,anti-chromatin IgG level reduction vs vehicle,[2]; Group 3,79%
same,serum IL-1β by EOS,"[3]; 3 mg/kg twice weekly, vehicle 16.8 pg/mL",5.7 pg/mL
same,"Cytokine AUC serum IL-1β, percent change vs vehicle","[3]; G1: 3 mg/kg iv, 1× wk",−56%
same,"Cytokine AUC serum IL-12, percent change vs vehicle","[3]; G1: 3 mg/kg iv, 1× wk",−48%
same,"Cytokine AUC serum TNFα, percent change vs vehicle","[3]; G1: 3 mg/kg iv, 1× wk",−62%
same,"Cytokine AUC serum IL-1β, percent change vs vehicle","[3]; G2: 3 mg/kg iv, 2× wk",−61%
same,"Cytokine AUC serum IL-12, percent change vs vehicle","[3]; G2: 3 mg/kg iv, 2× wk",−72%
same,"Cytokine AUC serum TNFα, percent change vs vehicle","[3]; G2: 3 mg/kg iv, 2× wk",−79%
same,"Cytokine AUC serum IL-1β, percent change vs vehicle","[3]; G3: 10 mg/kg po, 2× wk",−58%
same,"Cytokine AUC serum IL-12, percent change vs vehicle","[3]; G3: 10 mg/kg po, 2× wk",−62%
same,"Cytokine AUC serum TNFα, percent change vs vehicle","[3]; G3: 10 mg/kg po, 2× wk",−71%
same,"Spleen mass EOS, percent change vs vehicle","[4]; G1 3 mg/kg ip, 1× wk",−37%
same,splenomegaly decrease vs vehicle at EOS,[4]; G1: 3 mg/kg ip once per week,37%
same,"Spleen mass EOS, percent change vs vehicle","[4]; G2 3 mg/kg ip, 2× wk",−34%
same,splenomegaly decrease vs vehicle at EOS,[4]; G2: 3 mg/kg ip twice weekly,34%
same,spleen mass compared to once-a-week bortezomib,[4]; p<0.05,reduced spleen mass significantly
same,"Urine AUC leukocytes, percent change vs vehicle","[5]; G1: 3 mg/kg iv, 1× wk",−96%
same,"Urine AUC leukocytes, percent change vs vehicle","[5]; G2: 3 mg/kg iv, 2× wk",−94%
same,"Urine AUC leukocytes, percent change vs vehicle","[5]; G3: 10 mg/kg po, 2× wk",−94%
same,"p, serum concentration of collagen type I cross-linker vs G8 Dex 1.5 mg/kg 3× wk ip",[6]; G1 3 mg/kg 1× wk ip,P < 0.01
same,"Serum CTx linker AUC, percent change vs vehicle","[6]; G1 3 mg/kg ip, 1× wk",−41%
same,"p, serum concentration of collagen type I cross-linker vs G8 Dex 1.5 mg/kg 3× wk ip",[6]; G2 3 mg/kg 2× wk ip,P < 0.01
same,"Serum CTx linker AUC, percent change vs vehicle","[6]; G2 3 mg/kg ip, 2× wk",−40%
same,serum CTx levels compared to vehicle,[6]; treatment groups,no change in CTx levels
same,"AUC lymphomegaly, percent of non enlarged lymph nodes relative to vehicle","[7]; G1: 3 mg/kg iv, 1× wk",71%
same,"AUC lymphomegaly, percent of non enlarged lymph nodes relative to vehicle","[7]; G2: 3 mg/kg iv, 2× wk",34%
same,"AUC lymphomegaly, percent of non enlarged lymph nodes relative to vehicle","[7]; G3: 10 mg/kg po, 2× wk",9%
same,lymphomegaly decrease compared to vehicle,[7]; first value (G1: 3 mg/kg 1× wk),71%
same,lymphomegaly decrease compared to vehicle,[7]; second value (G2: 3 mg/kg 2× wk),34%
same,animals remaining at the end of the study (day 310),"[8]; COMPOUND A treatment groups, vehicle 45%",100%
same,"EOS survival, percent live mice from original number","[8]; G1 3 mg/kg ip, 1× wk",100%
same,survival increase relative to vehicle,[8]; G1: 3 mg/kg ip once per week,55%
same,"EOS survival, percent live mice from original number","[8]; G2 3 mg/kg ip, 2× wk",91%
same,survival increase relative to vehicle,[8]; G2: 3 mg/kg ip twice weekly,46%
same,mice still alive at day 56,[8]; both treatment groups of the substance,100%
